Experimental data taken from ChEMBL document CHEMBL2169830, “Identification, synthesis, and biological evaluation of the metabolites of 3-amino-6-(3'-aminopropyl)-5H-indeno[1,2-c]isoquinoline-5,11-(6H)dione (AM6-36), a promising rexinoid lead compound for the development of cancer chemotherapeutic and chemopreventive agents” (J Med Chem, 2012).
pEC50, pIC50: −log10 of the molar value.

Tests used:
[1] = Cytotoxicity against human HEK293 cells assessed as cell survival at 50 uM relative to control; type: cell-based; conditions: read-out: Survival
HEK293 [2] = experiment: Inhibition of TNFalpha-induced human NFkappaB activity in HEK293 cells at 50 uM incubated for 6 hrs followed by compound wash out measured after 5 mins by luciferase assay; type: cell-based
[3] = Cytotoxicity against african green monkey COS1 cells assessed as cell survival at 50 uM relative to control; type: cell-based; conditions: chlorocebus aethiops, COS-1 cells; read-out: Survival
[4] = Inhibition of TNFalpha-induced human NFkappaB activity in HEK293 cells incubated for 6 hrs followed by compound wash out measured after 5 mins by luciferase assay; type: cell-based
[5] = Cytotoxicity against african green monkey COS1 cells assessed as cell survival at 40 uM relative to control; type: cell-based; conditions: chlorocebus aethiops, COS-1 cells; read-out: Survival
[6] = target: T1, Retinoic acid receptor RXR-alpha (Homo sapiens, UniProt P19793); experiment: Agonist activity at human RXRalpha expressed in african green monkey COS1 cells assessed as induction of RXRE transcriptional activity after 12 hrs by luciferase reporter gene assay; type: functional, cell-based, COS-1
T1 sequence (P19793 whole entry): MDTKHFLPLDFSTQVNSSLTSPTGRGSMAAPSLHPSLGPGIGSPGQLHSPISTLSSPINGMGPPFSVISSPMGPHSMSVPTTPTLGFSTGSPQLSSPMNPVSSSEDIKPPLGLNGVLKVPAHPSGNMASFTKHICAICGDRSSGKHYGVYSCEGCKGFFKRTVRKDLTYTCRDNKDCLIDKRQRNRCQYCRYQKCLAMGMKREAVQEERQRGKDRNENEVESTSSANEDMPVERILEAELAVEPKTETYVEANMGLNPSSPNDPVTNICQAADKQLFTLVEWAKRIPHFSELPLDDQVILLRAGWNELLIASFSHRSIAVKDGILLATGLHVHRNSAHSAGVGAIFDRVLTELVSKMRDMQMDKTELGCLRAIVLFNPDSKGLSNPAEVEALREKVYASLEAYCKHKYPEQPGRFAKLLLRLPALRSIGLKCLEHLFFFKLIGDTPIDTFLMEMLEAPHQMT

[7] = target: T2, Retinoic acid receptor RXR-alpha (Homo sapiens) (UniProt P19793); experiment: Agonist activity at human RXRalpha expressed in african green monkey COS1 cells assessed as induction of RXRE transcriptional activity at 12.5 uM after 12 hrs by luciferase reporter gene assay relative to control; type: functional, cell-based; conditions: COS-1
T2 sequence (whole entry): T1 sequence (P19793 whole entry)

HEK293 [8] = experiment: Cytotoxicity against human HEK293 cells; type: cell-based

Structure (SMILES) | viability at 50 µM [1] | inhibition (HEK293 [2]) | viability at 50 µM [3] | pIC50 [4] | viability at 40 µM [5] | pEC50 [6] | fold change (FC) [7] | pIC50 (HEK293 [8])
Nc1ccc2c3c(n(CCCCl)c(=O)c2c1)-c1ccccc1C3=O | 91.4% | 0% | 102% |  |  |  |  | 
CNCCCn1c2c(c3ccc([N+](=O)[O-])cc3c1=O)C(=O)c1ccccc1-2 | 79.7% | 92.4% | < 50% | 5.43 |  |  |  | 
C=C(c1ccc(C(=O)O)cc1)c1cc2c(cc1C)C(C)(C)CCC2(C)C [BEXAROTENE] |  |  |  |  | 74.5% |  |  | 
CC(=O)Nc1ccc2c3c(n(CCCN=[N+]=[N-])c(=O)c2c1)-c1ccccc1C3=O | 115% | 0% | 93.1% |  |  |  |  | 
CC(C)(C)OC(=O)NCCCn1c2c(c3ccc([N+](=O)[O-])cc3c1=O)C(=O)c1ccccc1-2 | 101% | 0% | 106% |  |  |  |  | 
CC(=O)NCCCn1c2c(c3ccc(N)cc3c1=O)C(=O)c1ccccc1-2 | 106% | 81.8% | 75.2% | 4.84 |  | 4.68 | 3.52 | 
O=C1c2ccccc2-c2c1c1ccc([N+](=O)[O-])cc1c(=O)n2CCCO | 114% | 72.8% | 91.4% | 5.14 |  |  |  | 
CN(C)c1ccc2c3c(n(CCCNC(=O)OC(C)(C)C)c(=O)c2c1)-c1ccccc1C3=O | 97.6% | 25.9% | 102% |  |  |  |  | 
CC(=O)Nc1ccc2c3c(n(CCCO)c(=O)c2c1)-c1ccccc1C3=O | 128% | 53.9% | 90.6% |  |  |  |  | 
CNc1ccc2c3c(n(CCCNC(=O)OC(C)(C)C)c(=O)c2c1)-c1ccccc1C3=O | 68.6% | 53.9% | 94.8% |  |  |  |  | 
CNCCCn1c2c(c3ccc(N)cc3c1=O)C(=O)c1ccccc1-2 | 117% | 63.1% | 64.5% | 4.40 |  |  | 8.97 | 
CC(C)(C)OC(=O)NCCCn1c2c(c3ccc(N)cc3c1=O)C(=O)c1ccccc1-2 | 107% | 0% | 104% |  |  |  |  | 
Cc1ccc(S(=O)(=O)N[C@@H](Cc2ccccc2)C(=O)CCl)cc1 [TPCK] |  |  |  | 5.29 |  |  |  | 
Nc1ccc2c3c(n(CCCO)c(=O)c2c1)-c1ccccc1C3O (stereo not drawn) | 118% | 57.8% | 86.9% | 4.31 |  |  |  | 
CC(=O)Nc1ccc2c3c(n(CCCN)c(=O)c2c1)-c1ccccc1C3O (stereo not drawn) | 99.2% | 0% | 83.7% |  |  |  |  | 
NCCCn1c2c(c3ccc([N+](=O)[O-])cc3c1=O)C(=O)c1ccccc1-2 | < 50% | 80.8% | < 50% | 5.59 |  |  |  | 4.77
CC(=O)Nc1ccc2c3c(n(CCCN)c(=O)c2c1)-c1ccccc1C3=O | 122% | 0% | 74.5% |  |  | < 4.38 | 3.55 | 
Nc1ccc2c3c(n(CCCO)c(=O)c2c1)-c1ccccc1C3=O | 116% | 53.2% | 85.9% |  |  |  |  | 
CNc1ccc2c3c(n(CCCN)c(=O)c2c1)-c1ccccc1C3O (stereo not drawn) | 95% | 69.2% | 63.6% | 6.15 |  |  |  | 
CNc1ccc2c3c(n(CCCNC(=O)OC(C)(C)C)c(=O)c2c1)-c1ccccc1C3O (stereo not drawn) | 90.1% | 83.4% | 67.5% | 6.40 |  |  |  | 
CNCCCn1c2c(c3ccc(N)cc3c1=O)C(O)c1ccccc1-2 (stereo not drawn) | 90.1% | 83.7% | 84.1% | 6.22 |  |  |  | 
CN(C)c1ccc2c3c(n(CCCN)c(=O)c2c1)-c1ccccc1C3=O | 110% | 86.3% | < 50% | 4.49 |  |  |  | 
Cc1ccc(S(=O)(=O)/C=C/C#N)cc1 |  |  |  | 5.70 |  |  |  | 
CC(=O)NCCCn1c2c(c3ccc([N+](=O)[O-])cc3c1=O)C(=O)c1ccccc1-2 | 69.1% | 87.4% | 99.4% | 4.41 |  |  |  | 
O=C1c2ccccc2-c2c1c1ccc([N+](=O)[O-])cc1c(=O)n2CCCBr | 118% | 21.8% |  |  | 100% |  |  | 
CNc1ccc2c3c(n(CCCN)c(=O)c2c1)-c1ccccc1C3=O | 99.4% | 0% | < 50% |  |  |  | 6.09 | 
NCCCn1c2c(c3ccc(N)cc3c1=O)C(O)c1ccccc1-2 (stereo not drawn) | < 50% | 53.1% | 87.5% |  |  |  |  | 
